# Assay results: the supplement of paper PMC10307832
# Experiments:
# Experiment in all cases: relative viability (nuclei count vs DMSO), 5 days (fraction); higher = more cells survive
# Bleomycin + Foretinib = compound: CC1=C(N=C(N=C1N)[C@H](CC(=O)N)NC[C@@H](C(=O)N)N)C(=O)N[C@@H]([C@H](C2=CN=CN2)OC3C(C(C(C(O3)CO)O)O)OC4C(C(C(C(O4)CO)O)OC(=O)N)O)C(=O)N[C@H](C)[C@H]([C@H](C)C(=O)N[C@@H]([C@@H](C)O)C(=O)NCCC5=NC(=CS5)C6=NC(=CS6)C(=O)NCCC[S+](C)C)O [Bleomycin] + COc1cc2c(Oc3ccc(NC(=O)C4(C(=O)Nc5ccc(F)cc5)CC4)cc3F)ccnc2cc1OCCCN1CCOCC1 [Foretinib] (partner 0.25 µM); settings: main component drawn
# In short: (§1)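 Lung cancer cell lines, seeded in 1536-well plates, were treated the following day by pin tool with a single drug or with five library-drug doses (not always all listed) in √10 steps on top of a fixed anchor-drug dose. Cells were fixed and nuclei stained in one step after 5 days, and nuclei were counted. Relative viability is the nuclei count for treated wells divided by that for vehicle wells, reported as medians of duplicate plates.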
# Etoposide + OSI-027 = compound: COc1cc([C@@H]2c3cc4c(cc3[C@@H](O[C@@H]3O[C@@H]5CO[C@@H](C)O[C@H]5[C@H](O)[C@H]3O)[C@H]3COC(=O)[C@H]23)OCO4)cc(OC)c1O [Etoposide] + COc1cccc2cc(-c3nc([C@H]4CC[C@H](C(=O)O)CC4)n4ncnc(N)c34)[nH]c12 [OSI-027] (partner 0.5 µM)
# In short: as §1
# Etoposide + Lapatinib = compound: COc1cc([C@@H]2c3cc4c(cc3[C@@H](O[C@@H]3O[C@@H]5CO[C@@H](C)O[C@H]5[C@H](O)[C@H]3O)[C@H]3COC(=O)[C@H]23)OCO4)cc(OC)c1O [Etoposide] + CS(=O)(=O)CCNCc1ccc(-c2ccc3ncnc(Nc4ccc(OCc5cccc(F)c5)c(Cl)c4)c3c2)o1 [Lapatinib] (partner 2 µM)
# In short: as §1
# Etoposide + Pemetrexed = compound: COc1cc([C@@H]2c3cc4c(cc3[C@@H](O[C@@H]3O[C@@H]5CO[C@@H](C)O[C@H]5[C@H](O)[C@H]3O)[C@H]3COC(=O)[C@H]23)OCO4)cc(OC)c1O [Etoposide] + Nc1nc2[nH]cc(CCc3ccc(C(=O)N[C@@H](CCC(=O)O)C(=O)O)cc3)c2c(=O)[nH]1 [Pemetrexed] (partner 0.2 µM)
# In short: as §1
Cell Line,relative viability (Bleomycin + Foretinib; first compound 0.01 µM),relative viability (Bleomycin + Foretinib; first compound 0.03162 µM),relative viability (Bleomycin + Foretinib; first compound 0.1 µM),relative viability (Bleomycin + Foretinib; first compound 0.3162 µM),relative viability (Bleomycin + Foretinib; first compound 1 µM),relative viability (Etoposide + OSI-027; first compound 0.01 µM),relative viability (Etoposide + OSI-027; first compound 0.03162 µM),relative viability (Etoposide + OSI-027; first compound 0.1 µM),relative viability (Etoposide + OSI-027; first compound 0.3162 µM),relative viability (Etoposide + OSI-027; first compound 1 µM),relative viability (Etoposide + Lapatinib; first compound 0.01 µM),relative viability (Etoposide + Lapatinib; first compound 0.03162 µM),relative viability (Etoposide + Lapatinib; first compound 0.1 µM),relative viability (Etoposide + Lapatinib; first compound 0.3162 µM),relative viability (Etoposide + Lapatinib; first compound 1 µM),relative viability (Etoposide + Pemetrexed; first compound 0.01 µM),relative viability (Etoposide + Pemetrexed; first compound 0.03162 µM),relative viability (Etoposide + Pemetrexed; first compound 0.1 µM),relative viability (Etoposide + Pemetrexed; first compound 0.3162 µM),relative viability (Etoposide + Pemetrexed; first compound 1 µM)
201T,0.902,0.928,0.825,0.548,0.336,0.6,0.693,0.641,0.566,0.283,1.07,1.05,0.916,0.921,0.729,0.325,0.343,0.355,0.318,0.32
A549,0.812,0.917,0.635,0.182,0.0665,,,,,,0.957,0.811,0.537,0.244,0.111,,,,,
A-427,0.862,0.873,0.935,0.481,0.284,0.472,0.486,0.43,0.396,0.212,1.04,1.06,0.807,0.604,0.196,0.999,1.06,0.778,0.607,0.305
ABC-1,0.773,0.9,0.579,0.346,0.24,0.529,0.564,0.339,0.361,0.179,1.05,1.34,1.09,1.1,0.667,,,,,
BEN,0.626,0.582,0.587,0.379,0.329,0.266,0.306,,0.297,0.318,0.81,0.733,,0.663,0.458,0.87,1.05,,0.727,0.669
CAL-12T,0.993,0.706,0.579,0.199,0.174,0.527,0.603,0.339,0.555,0.199,0.73,0.688,0.434,0.52,0.356,1.02,1.29,1.07,0.963,0.484
COR-L23,0.825,0.781,0.412,0.154,0.144,0.76,0.741,0.436,0.532,0.25,0.854,1.06,0.92,0.588,0.14,0.198,0.207,0.207,0.214,0.189
COR-L 105,0.895,1,0.952,0.761,0.498,0.756,0.851,0.432,0.669,0.556,0.271,0.393,0.26,0.343,0.356,1.03,1.02,1.27,0.836,0.844
Calu-6,0.646,0.549,0.29,0.132,0.107,,,,,,1.04,0.903,1.13,0.435,0.284,,,,,
